In EP2716637A1, “MANGIFERIN AGLYCONE CRYSTAL FORM I AND PREPARATION METHOD THEREOF” (Kunming Pharmaceutical Corp., priority 2011, dated 2012):
Read-outs that look alike come from different tables or passages of the source. Values belong to the molecule of their own block, whether it stands above or below them.

Experiments:
[1] = Blood concentration after oral (intragastric) administration to Beagle dogs; type: in vivo; conditions: for concentration: listed as Commercially available mangiferin aglycone
Protocol: Solid powder of mangiferin aglycone crystal form I and commercially available mangiferin aglycone (reference substance of mangiferin aglycone, purchased from Sigma Corporation, Lot No.: 8420-201002) were administered to Beagle dogs intragastrically respectively. The dosage of administration was 6mg/kg, and arterial blood of the dogs was drawn at different time points after administration to determine the content of mangiferin aglycone (See Table 4 and Figure 6). Table 4. Comparison of blood concentrations at different time points after mangiferin aglycone samples were administered orally to Beagle dogs

[2] = Active destructing test (stability) with HPLC analysis; type: physicochemical
Protocol: Active destructing test of mangiferin aglycone crystal form I: high purity mangiferin aglycone obtained in the same batch was respectively subjected to the following treatments: • (1) Destruction by strong acid: 0.5 mg sample was precisely weighed in a 50 ml measuring flask, and 1 ml of 0.1 mol/L hydrochloric acid aqueous solution was added, mixed evenly, and was allowed to stand for 48 hours at 20~30°C; • (2) Destruction by strong base: 0.5 mg sample was precisely weighed in a 50 ml measuring flask, and 1 ml of 0.1 mol/L sodium hydroxide aqueous solution was added, mixed evenly, and was allowed to stand for 48 hours at 20~30°C; • (3) Destruction by strong oxidant: 0.5 mg sample was precisely weighed in a 50 ml measuring flask, and 1 ml of 10% aqueous solution of hydrogen peroxide (H2O2) was added, mixed evenly, and was allowed to stand for 48 hours at 20~30°C; • (4) Destruction by high temperature: 0.5 mg sample was precisely weighed in a 50 ml measuring flask, and was allowed to stand for 48 hours at 100°C; • (5) Destruction by strong light: 0.5 mg sample was precisely weighed in a 50 ml measuring flask, and was allowed to stand for 240 hours under strong light condition of 4500±500 lux. The above-mentioned testing samples were taken out at specified time points, and methanol was added to dissolve and diluted the sample to the scale mark, shook well, then […] samples were analyzed by HPLC.
Stability test of mangiferin aglycone crystal form I

[3] = Stability of solutions in alkaline phosphate buffer, content by HPLC; type: physicochemical; conditions: for remaining at 2 h / remaining at 4 h / remaining at 6 h / remaining at 8 h / remaining at 12 h: phosphate buffer, read-out: content of mangiferin aglycone
Protocol: Appropriate amounts of mangiferin aglycone crystal form I and mangiferin aglycone were taken respectively, and phosphate buffer of pH 8.0, pH 9.0 and pH 10.0 were added respectively, metered to 100 ml, and were allowed to stand at 37°C, and samples were taken at 2, 4, 6, 8 and 12 hours respectively, and the content of mangiferin aglycone were measured by HPLC method. Stability of solution of mangiferin aglycone crystal form I

[4] = target: T1, recombinant humanized protein tyrosine phosphatase 1B (Homo sapiens, UniProt P18031); conditions: reported from CN200910184185.5; cited from earlier work
T1 sequence (P18031 1-435): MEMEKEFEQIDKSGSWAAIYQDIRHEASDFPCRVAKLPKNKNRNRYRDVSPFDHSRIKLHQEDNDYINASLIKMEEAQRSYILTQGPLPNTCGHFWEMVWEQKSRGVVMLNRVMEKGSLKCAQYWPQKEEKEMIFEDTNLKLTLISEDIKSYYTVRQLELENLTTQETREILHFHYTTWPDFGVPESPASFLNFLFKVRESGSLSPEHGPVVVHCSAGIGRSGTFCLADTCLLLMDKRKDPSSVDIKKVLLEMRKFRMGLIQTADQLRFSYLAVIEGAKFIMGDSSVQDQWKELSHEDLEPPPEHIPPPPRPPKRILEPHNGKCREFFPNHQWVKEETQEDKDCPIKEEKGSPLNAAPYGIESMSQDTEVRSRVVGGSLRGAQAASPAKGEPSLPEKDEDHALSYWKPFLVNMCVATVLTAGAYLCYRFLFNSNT

[5] = tested on: C57BL/6 normal mice and ob/ob diabetes model mice; conditions: cited from earlier work
C57BL/6 normal mouse = conditions: reported from CN200810196777.4, cited from earlier work
[6] = destructing by high temperature: 48 hours at 100°C
[7] = destructing by strong acid: 0.1 mol/L hydrochloric acid, 48 hours at 20~30°C
[8] = destructing by strong base: 0.1 mol/L sodium hydroxide, 48 hours at 20~30°C
[9] = destructing by strong light: 240 hours at 4500±500 lux
[10] = destructing by strong oxidant: 10% hydrogen peroxide, 48 hours at 20~30°C

concentration at 0.25 h ([1]; dog, serum, po, 6 mg/kg, intragastrically, 6mg/kg, solid powder, 0.25 hr, read-out: Mangiferin aglycone concentration in serum): 721 nM
concentration at 0.5 h ([1]; dog, serum, po, 6 mg/kg, intragastrically, 6mg/kg, solid powder, 0.5 hr, read-out: Mangiferin aglycone concentration in serum): 470 nM
concentration at 0.75 h ([1]; dog, serum, po, 6 mg/kg, intragastrically, 6mg/kg, solid powder, 0.75 hr, read-out: Mangiferin aglycone concentration in serum): 601 nM
concentration at 1 h ([1]; dog, serum, po, 6 mg/kg, intragastrically, 6mg/kg, solid powder, 1 hr, read-out: Mangiferin aglycone concentration in serum): 387 nM
concentration at 1.5 h ([1]; dog, serum, po, 6 mg/kg, intragastrically, 6mg/kg, solid powder, 1.5 hr, read-out: Mangiferin aglycone concentration in serum): 163 nM
concentration at 2 h ([1]; dog, serum, po, 6 mg/kg, intragastrically, 6mg/kg, solid powder, 2 hr, read-out: Mangiferin aglycone concentration in serum): 158 nM
concentration at 3 h ([1]; dog, serum, po, 6 mg/kg, intragastrically, 6mg/kg, solid powder, 3 hr, read-out: Mangiferin aglycone concentration in serum): 119 nM
concentration at 4 h ([1]; dog, serum, po, 6 mg/kg, intragastrically, 6mg/kg, solid powder, 4 hr, read-out: Mangiferin aglycone concentration in serum): 96 nM
concentration at 6 h ([1]; dog, serum, po, 6 mg/kg, intragastrically, 6mg/kg, solid powder, 6 hr, read-out: Mangiferin aglycone concentration in serum): 84.4 nM
concentration at 8 h ([1]; dog, serum, po, 6 mg/kg, intragastrically, 6mg/kg, solid powder, 8 hr, read-out: Mangiferin aglycone concentration in serum): 80.8 nM
oral bioavailability ([1]; same oral dosage, compared with commercially available mangiferin aglycone): higher
stability to light, moisture, heat ([2]; conclusion from the active destructing test): stable
peak area of mangiferin aglycone [2, 6]: 233
peak area of mangiferin aglycone [2, 7]: 234
peak area of mangiferin aglycone [2, 8]: 0
peak area of mangiferin aglycone [2, 9]: 234
peak area of mangiferin aglycone [2, 10]: 215
situations of other degradation products [2, 10]: One new degradation product was found
peak area of mangiferin aglycone ([2]; undestructed (baseline sample)): 234
stability of solution ([3]; different alkaline phosphate buffer solutions, compared with mangiferin aglycone): better
remaining at 2 h ([3]; pH 8, phosphate buffer pH8, 37°C, standing time 2h): 98.6%
remaining at 4 h ([3]; pH 8, phosphate buffer pH8, 37°C, standing time 4h): 98.4%
remaining at 6 h ([3]; pH 8, phosphate buffer pH8, 37°C, standing time 6h): 98.3%
remaining at 8 h ([3]; pH 8, phosphate buffer pH8, 37°C, standing time 8h): 98.2%
remaining at 12 h ([3]; pH 8, phosphate buffer pH8, 37°C, standing time 12h): 97.5%
remaining at 2 h ([3]; pH 9, phosphate buffer pH9, 37°C, standing time 2h): 98.5%
remaining at 4 h ([3]; pH 9, phosphate buffer pH9, 37°C, standing time 4h): 98.2%
remaining at 6 h ([3]; pH 9, phosphate buffer pH9, 37°C, standing time 6h): 98%
remaining at 8 h ([3]; pH 9, phosphate buffer pH9, 37°C, standing time 8h): 97.8%
remaining at 12 h ([3]; pH 9, phosphate buffer pH9, 37°C, standing time 12h): 97.2%
remaining at 2 h ([3]; pH 10, phosphate buffer pH10, 37°C, standing time 2h): 97.2%
remaining at 4 h ([3]; pH 10, phosphate buffer pH10, 37°C, standing time 4h): 97.4%
remaining at 6 h ([3]; pH 10, phosphate buffer pH10, 37°C, standing time 6h): 97%
remaining at 8 h ([3]; pH 10, phosphate buffer pH10, 37°C, standing time 8h): 96.3%
remaining at 12 h ([3]; pH 10, phosphate buffer pH10, 37°C, standing time 12h): 95%
Structure (SMILES): O=c1c2cc(O)c(O)cc2oc2cc(O)cc(O)c12 [mangiferin aglycone crystal form I, 1,3,6,7-tetrahydroxyxanthone]
situations of other degradation products [2, 6]: No new peak for degradation product was found
situations of other degradation products [2, 7]: No new peak for degradation product was found
situations of other degradation products [2, 8]: UV shift occurred, and there were many peaks for degradation products
situations of other degradation products [2, 9]: No peak for degradation product was found
situations of other degradation products ([2]; undestructed (baseline sample)): No new peak for degradation product was found

concentration ([1]; intragastrically, 6mg/kg, solid powder, 0.25 hr, 6 mg/kg, 15 min, read-out: Mangiferin aglycone concentration in serum): 666 nM
concentration ([1]; intragastrically, 6mg/kg, solid powder, 0.5 hr, 6 mg/kg, 30 min, read-out: Mangiferin aglycone concentration in serum): 404 nM
concentration ([1]; intragastrically, 6mg/kg, solid powder, 0.75 hr, 6 mg/kg, 45 min, read-out: Mangiferin aglycone concentration in serum): 414 nM
concentration ([1]; intragastrically, 6mg/kg, solid powder, 1 hr, 6 mg/kg, 60 min, read-out: Mangiferin aglycone concentration in serum): 366 nM
concentration ([1]; intragastrically, 6mg/kg, solid powder, 1.5 hr, 6 mg/kg, 90 min, read-out: Mangiferin aglycone concentration in serum): 136 nM
concentration ([1]; intragastrically, 6mg/kg, solid powder, 2 hr, 6 mg/kg, 120 min, read-out: Mangiferin aglycone concentration in serum): 108 nM
concentration ([1]; intragastrically, 6mg/kg, solid powder, 3 hr, 6 mg/kg, 180 min, read-out: Mangiferin aglycone concentration in serum): 100 nM
concentration ([1]; intragastrically, 6mg/kg, solid powder, 4 hr, 6 mg/kg, 240 min, read-out: Mangiferin aglycone concentration in serum): 70.1 nM
concentration ([1]; intragastrically, 6mg/kg, solid powder, 6 hr, 6 mg/kg, 360 min, read-out: Mangiferin aglycone concentration in serum): 52.6 nM
concentration ([1]; intragastrically, 6mg/kg, solid powder, 8 hr, 6 mg/kg, 480 min, read-out: Mangiferin aglycone concentration in serum): 41.3 nM
blood concentration ([1]; same oral dosage, compared with mangiferin aglycone crystal form I): significantly lower
content of mangiferin aglycone ([3]; phosphate buffer pH8, 37°C, standing time 2h, 120 min): 98.5%
content of mangiferin aglycone ([3]; phosphate buffer pH8, 37°C, standing time 4h, 240 min): 97.5%
content of mangiferin aglycone ([3]; phosphate buffer pH8, 37°C, standing time 6h, 360 min): 96.3%
content of mangiferin aglycone ([3]; phosphate buffer pH8, 37°C, standing time 8h, 480 min): 94.5%
content of mangiferin aglycone ([3]; phosphate buffer pH8, 37°C, standing time 12h, 720 min): 93.2%
content of mangiferin aglycone ([3]; phosphate buffer pH9, 37°C, standing time 2h, 120 min): 97.3%
content of mangiferin aglycone ([3]; phosphate buffer pH9, 37°C, standing time 4h, 240 min): 94.3%
content of mangiferin aglycone ([3]; phosphate buffer pH9, 37°C, standing time 6h, 360 min): 93.4%
content of mangiferin aglycone ([3]; phosphate buffer pH9, 37°C, standing time 8h, 480 min): 92.3%
content of mangiferin aglycone ([3]; phosphate buffer pH9, 37°C, standing time 12h, 720 min): 91.0%
content of mangiferin aglycone ([3]; phosphate buffer pH10, 37°C, standing time 2h, 120 min): 97.7%
content of mangiferin aglycone ([3]; phosphate buffer pH10, 37°C, standing time 4h, 240 min): 93.8%
content of mangiferin aglycone ([3]; phosphate buffer pH10, 37°C, standing time 6h, 360 min): 92.1%
content of mangiferin aglycone ([3]; phosphate buffer pH10, 37°C, standing time 8h, 480 min): 91.0%
content of mangiferin aglycone ([3]; phosphate buffer pH10, 37°C, standing time 12h, 720 min): 90.3%
Structure (SMILES): O=c1c2cc(O)c(O)cc2oc2cc(O)cc(O)c12 [mangiferin aglycone, 1,3,6,7-tetrahydroxyxanthone]
type of inhibition [4]: competitive inhibitor
blood glucose of the experimental animal [5]: reduce
sensitivity to insulin [5]: significantly improve
in vivo secretion of insulin induced by glucose (C57BL/6 normal mouse; C57BL/6-normal mouse): increase
IGTT (C57BL/6 normal mouse; C57BL/6 normal mouse): significantly improve
